Measurements from publication PMC3676669 (Journal of inorganic biochemistry, 2012).

Biological target: T1, 20S proteasome, chymotrypsin-like activity (β5 subunit) (Oryctolagus cuniculus, UniProt G1T4Q9)
T1 sequence (G1T4Q9 1-263): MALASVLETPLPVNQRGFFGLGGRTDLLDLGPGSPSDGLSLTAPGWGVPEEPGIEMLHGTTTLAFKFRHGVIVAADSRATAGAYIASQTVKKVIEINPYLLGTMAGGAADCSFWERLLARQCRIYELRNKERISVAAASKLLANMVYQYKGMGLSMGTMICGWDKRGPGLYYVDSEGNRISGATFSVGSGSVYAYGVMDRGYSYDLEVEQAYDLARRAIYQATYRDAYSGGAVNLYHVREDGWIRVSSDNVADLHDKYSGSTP
Assay: fluorogenic Suc-LLVY-AMC hydrolysis by purified […] proteasome, […] h
Assay type: biochemical

Compound	IC50 [µM]
CC(C)[C@H]1C(=O)[O][Cu-3]23([O]c4ccc5ccccc5c4C=[N+]12)[n+]1cccc2ccc4ccc[n+]3c4c21 [C3, [Cu(L2)(Phen)]·3H2O]	11.3
COc1cccc2c1[O][Cu-3]13([O]C(=O)C(CCSC)[N+]1=C2)[n+]1cccc2ccc4ccc[n+]3c4c21 (stereo not shown) [C1, [Cu(L1)(Phen)]·9H2O]	13.3
CC(C)[C@H]1C(=O)[O][Cu-3]23([O]c4ccc5ccccc5c4C=[N+]12)[n+]1ccccc1-c1cccc[n+]13 [C4, [Cu(L2)(Bpy)]·3H2O]	42.5
COc1cccc2c1[O][Cu-3]13([O]C(=O)[C@H](CCSC)[N+]1=C2)[n+]1ccccc1-c1cccc[n+]13 [C2, [Cu(L1)(Bpy)]·3H2O]	46.5
